From ChEMBL document CHEMBL1130174, “Pyrrolidine-3-carboxylic acids as endothelin antagonists. 2. Sulfonamide-based ETA/ETB mixed antagonists” (J Med Chem, 1997)

Experiments:
[1] = biological target: T1, Endothelin receptor type B (Sus scrofa, UniProt P35463); test: Ability to displace endothelin ([125I]ET-3) from endothelin B receptor derived from cerebellar tissue of porcine.
T1 sequence (P35463 whole entry): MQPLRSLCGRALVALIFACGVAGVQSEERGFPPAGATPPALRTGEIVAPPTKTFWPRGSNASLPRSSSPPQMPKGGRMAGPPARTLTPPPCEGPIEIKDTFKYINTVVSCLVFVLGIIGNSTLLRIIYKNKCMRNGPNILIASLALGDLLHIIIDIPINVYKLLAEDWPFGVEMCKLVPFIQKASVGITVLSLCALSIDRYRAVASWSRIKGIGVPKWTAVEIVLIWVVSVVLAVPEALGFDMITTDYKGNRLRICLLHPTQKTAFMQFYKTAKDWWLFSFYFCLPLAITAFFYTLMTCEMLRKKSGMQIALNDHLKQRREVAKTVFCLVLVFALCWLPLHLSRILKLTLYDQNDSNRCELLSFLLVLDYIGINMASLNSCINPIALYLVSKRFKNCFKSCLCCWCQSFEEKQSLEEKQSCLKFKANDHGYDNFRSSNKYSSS

[2] = Ratio of endothelin A receptor and endothelin B receptor.
[3] = biological target: T2, Endothelin-1 receptor (Rattus norvegicus, UniProt P26684); test: Ability to displace endothelin ([125I]ET1) from endothelin A receptor derived from MMQ cells of rodent.; type: cell-based, Rodentia sp.
T2 sequence (P26684 whole entry): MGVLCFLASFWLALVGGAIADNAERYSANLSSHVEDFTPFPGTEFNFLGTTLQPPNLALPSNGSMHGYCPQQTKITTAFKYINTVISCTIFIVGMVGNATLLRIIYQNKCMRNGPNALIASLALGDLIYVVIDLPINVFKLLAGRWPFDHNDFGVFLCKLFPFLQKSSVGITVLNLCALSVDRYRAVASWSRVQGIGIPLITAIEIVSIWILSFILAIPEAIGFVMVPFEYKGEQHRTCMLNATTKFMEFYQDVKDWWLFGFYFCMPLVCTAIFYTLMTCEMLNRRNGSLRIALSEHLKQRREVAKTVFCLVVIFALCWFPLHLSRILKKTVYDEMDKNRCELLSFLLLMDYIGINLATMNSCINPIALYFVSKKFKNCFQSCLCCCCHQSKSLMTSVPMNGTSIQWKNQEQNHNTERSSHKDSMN

[4] = Oral bioavailability in rat; type: ADME, organism-based; conditions: in vivo
[5] = Half-life is obtained after intravenous dosing of rats.; type: ADME, organism-based; conditions: rat, in vivo

| IC50 [1] | Ratio [2] | IC50 [3] | bioavailability [4] | half-life [5] | SMILES |
| --- | --- | --- | --- | --- | --- |
| 36 nM | 22 | 1.6 nM |  |  | CCCN(CCN1C[C@H](c2ccc3c(c2)OCO3)[C@@H](C(=O)O)[C@@H]1c1ccc(OC)cc1)S(=O)(=O)CCC |
| 1.5 nM |  |  |  |  | CCCCCCS(=O)(=O)N(CCC)CCN1C[C@H](c2ccc3c(c2)OCO3)[C@@H](C(=O)O)[C@@H]1c1ccc(OC)c(F)c1 (stereo in doubt; 14b) |
| 1 nM |  |  |  |  | CCCCS(=O)(=O)N(CCC)CCN1C[C@H](c2ccc3c(c2)OCO3)[C@@H](C(=O)O)[C@@H]1c1ccc(OC)c(F)c1 (stereo in doubt; 14a) |
| 610 nM | 13 | 48 nM |  |  | CCCCCS(=O)(=O)N(CCC)CCN1C[C@H](c2ccc3c(c2)OCO3)[C@@H](C(=O)O)[C@@H]1c1ccc(OCCC)cc1 |
| 5.2 nM | 8.4 | 0.62 nM |  |  | CCCCCS(=O)(=O)N(CCC)CCN1C[C@H](c2ccc3c(c2)OCO3)[C@@H](C(=O)O)[C@@H]1c1ccc(OCOC)cc1 |
| 850 nM | 43 | 20 nM |  |  | CCCCN(CCN1C[C@H](c2ccc3c(c2)OCO3)[C@@H](C(=O)O)[C@@H]1c1ccc(OC)cc1)C(=O)CCC |
| 34 nM |  |  |  |  | CCCN(CCN1C[C@H](c2ccc3c(c2)OCO3)[C@@H](C(=O)O)[C@@H]1c1ccc(OC)cc1)S(=O)(=O)Cc1ccccc1 |
| 9.4 nM | 4.7 | 2 nM |  |  | CCCCS(=O)(=O)N(CCC)CCN1C[C@H](c2ccc3c(c2)OCO3)[C@@H](C(=O)O)[C@@H]1c1ccc(OC)cc1 |
| 1.2 nM | 2.6 | 0.46 nM |  |  | CCCN(CCN1C[C@H](c2ccc3c(c2)OCO3)[C@@H](C(=O)O)[C@@H]1c1ccc(OC)c(F)c1)S(=O)(=O)CCC(C)C |
| 6.3 nM | 3.1 | 2 nM |  |  | CCCN(CCN1C[C@H](c2ccc3c(c2)OCO3)[C@@H](C(=O)O)[C@@H]1c1ccc(OC)cc1)S(=O)(=O)CCCCl |
| 1.6 nM | 7.6 | 0.21 nM |  |  | CCCN(CCN1C[C@H](c2ccc3c(c2)OCO3)[C@@H](C(=O)O)[C@@H]1c1ccc(OC)c(F)c1)S(=O)(=O)CC(C)C |
| 95 nM | 79 | 1.2 nM |  |  | CCCN(CCN1C[C@H](c2ccc3c(c2)OCO3)[C@@H](C(=O)O)[C@@H]1c1ccc(OC)cc1)S(=O)(=O)CC |
| 7 nM | 10 | 0.66 nM |  |  | CCCCCS(=O)(=O)N(CCC)CCN1C[C@H](c2ccc3c(c2)OCO3)[C@@H](C(=O)O)[C@@H]1c1ccc2c(c1)OCCO2 |
| 66 nM | 120 | 0.53 nM |  |  | CCCN(CCN1C[C@H](c2ccc3c(c2)OCO3)[C@@H](C(=O)O)[C@@H]1c1ccc(OC)cc1)S(=O)(=O)c1ccc(OC)cc1 |
| 41 nM | 6.5 | 6.3 nM |  |  | CCCN(CCN1C[C@H](c2ccc3c(c2)OCO3)[C@@H](C(=O)O)[C@@H]1c1ccc(OC)cc1)S(=O)(=O)c1ccc(Cl)cc1 |
| 0.98 nM |  |  |  |  | CCCN(CCN1C[C@H](c2ccc3c(c2)OCO3)[C@@H](C(=O)O)[C@@H]1c1ccc(OC)c(F)c1)S(=O)(=O)CCCC(F)(F)F (stereo in doubt; 14f) |
| 57 nM | 11 | 5.1 nM |  |  | CCCCCCCS(=O)(=O)N(CCC)CCN1C[C@H](c2ccc3c(c2)OCO3)[C@@H](C(=O)O)[C@@H]1c1ccc(OC)cc1 |
| 73 nM | 32 | 2.3 nM |  |  | CCCCCS(=O)(=O)N(CCC)CCN1C[C@H](c2ccc3c(c2)OCO3)[C@@H](C(=O)O)[C@@H]1c1ccc(OC)c(OC)c1 |

| IC50 [1] | Ratio [2] | IC50 [3] | bioavailability [4] | half-life [5] | SMILES |
| --- | --- | --- | --- | --- | --- |
|  |  |  | 30% | 4 h | COc1ccccc1Oc1c(NS(=O)(=O)c2ccc(C(C)(C)C)cc2)nc(-c2ncccn2)nc1OCCO [BOSENTAN] |
| 60 nM | 30 | 2 nM |  |  | CCCCN(CCN1C[C@H](c2ccc3c(c2)OCO3)[C@@H](C(=O)O)[C@@H]1c1ccc(OC)cc1)S(=O)(=O)CCC |
| 210 nM | 150 | 1.4 nM |  |  | CCCN(CCN1C[C@H](c2ccc3c(c2)OCO3)[C@@H](C(=O)O)[C@@H]1c1ccc(OC)cc1)S(=O)(=O)c1ccccc1 |
|  | 2.5 |  |  |  | CCCN(CCN1C[C@H](c2ccc3c(c2)OCO3)[C@@H](C(=O)O)[C@@H]1c1ccc(OC)c(F)c1)S(=O)(=O)CCCCl (stereo in doubt; 14e) [listing 1 of 2 here] |
| 1 nM |  | 0.4 nM |  |  | CCCN(CCN1C[C@H](c2ccc3c(c2)OCO3)[C@@H](C(=O)O)[C@@H]1c1ccc(OC)c(F)c1)S(=O)(=O)CCCCl (stereo in doubt; 14e) [listing 2 of 2 here] |
| 4.5 nM | 10 | 0.43 nM |  |  | CCCCCCS(=O)(=O)N(CCC)CCN1C[C@H](c2ccc3c(c2)OCO3)[C@@H](C(=O)O)[C@@H]1c1ccc(OC)cc1 |
| 68 nM | 3.8 | 18 nM |  |  | CCCCCS(=O)(=O)N(CCC)CCN1C[C@H](c2ccc3c(c2)OCO3)[C@@H](C(=O)O)[C@@H]1c1ccc(F)c(F)c1 |
|  |  |  | 70% |  | CCCCN(CCCC)C(=O)CN1C[C@H](c2ccc3c(c2)OCO3)[C@@H](C(=O)O)[C@@H]1c1ccc(OC)cc1 |
| 62 nM | 7.7 | 8.1 nM |  |  | CCCS(=O)(=O)N(CCN1C[C@H](c2ccc3c(c2)OCO3)[C@@H](C(=O)O)[C@@H]1c1ccc(OC)cc1)CC(C)C |
| 5.2 nM | 6.6 | 0.78 nM |  |  | CCCN(CCN1C[C@H](c2ccc3c(c2)OCO3)[C@@H](C(=O)O)[C@@H]1c1ccc(OC)cc1)S(=O)(=O)CC(C)C |
| 77 nM | 15 | 5.2 nM |  |  | CCCN(CCN1C[C@H](c2ccc3c(c2)OCO3)[C@@H](C(=O)O)[C@@H]1c1ccc(OC)cc1)S(=O)(=O)CCOC |
| 85 nM | 10 | 8.3 nM |  |  | CCCN(CCN1C[C@H](c2ccc3c(c2)OCO3)[C@@H](C(=O)O)[C@@H]1c1ccc(OC)cc1)S(=O)(=O)c1ccc(C)cc1 |
| 260 nM | 26 | 10 nM |  |  | CCCS(=O)(=O)N(C)CCN1C[C@H](c2ccc3c(c2)OCO3)[C@@H](C(=O)O)[C@@H]1c1ccc(OC)cc1 |
| 4.1 nM | 7.2 | 0.57 nM |  |  | CCCCCS(=O)(=O)N(CCC)CCN1C[C@H](c2ccc3c(c2)OCO3)[C@@H](C(=O)O)[C@@H]1c1ccc(OC)cc1 |
| 2.9 nM | 1.1 | 2.7 nM |  |  | CCCN(CCN1C[C@H](c2ccc3c(c2)OCO3)[C@@H](C(=O)O)[C@@H]1c1ccc(OC)c(F)c1)S(=O)(=O)Cc1ccccc1 |
| 2.6 nM | 2 | 1.3 nM |  |  | CCCCCS(=O)(=O)N(CCC)CCN1C[C@H](c2ccc3c(c2)OCO3)[C@@H](C(=O)O)[C@@H]1c1ccc(OCC)c(F)c1 |
| 0.85 nM |  |  |  |  | CCCCCS(=O)(=O)N(CCC)CCN1C[C@H](c2ccc3c(c2)OCO3)[C@@H](C(=O)O)[C@@H]1c1ccc(OC)c(F)c1 (stereo in doubt; 13e) |
